Results taken from patent US20110306636A1, “OXAZOLE PYRIDINE DERIVATIVES USEFUL AS S1P1 RECEPTOR AGONISTS” (Merck Serono SA, priority 2009, published 2011).
pEC50: −log10 of the molar value. Counter-ions that a name gives are not always drawn. Like-named read-outs stand apart in the source and are kept apart here.

How the values were obtained:
S1P1 [1] = molecular target: T1, S1P1 (Homo sapiens, UniProt P21453); experiment: 35S-GTPγS binding assay, S1P1 membranes; assay type: biochemical; conditions: membranes from CHO cells expressing S1P1; read-out: S1P1/GTPG EC50
T1 sequence (P21453 whole entry, species assumed): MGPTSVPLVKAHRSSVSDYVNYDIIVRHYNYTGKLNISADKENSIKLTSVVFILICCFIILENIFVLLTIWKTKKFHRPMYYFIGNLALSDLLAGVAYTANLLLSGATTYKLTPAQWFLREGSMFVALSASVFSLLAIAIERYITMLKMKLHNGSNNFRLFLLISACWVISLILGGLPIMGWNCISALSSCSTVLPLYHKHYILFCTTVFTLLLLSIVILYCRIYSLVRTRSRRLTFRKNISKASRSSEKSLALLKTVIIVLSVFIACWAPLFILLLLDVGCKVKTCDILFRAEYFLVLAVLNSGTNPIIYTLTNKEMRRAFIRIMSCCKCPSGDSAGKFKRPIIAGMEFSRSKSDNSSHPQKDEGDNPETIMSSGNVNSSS
Description: (§1) Membranes Preparation: Membranes were prepared from CHO cells expressing S1P1 or S1P3 for use in ligand and 35S-GTPγS binding studies. Cells were suspended in 50 mM TRIS, pH 7.4, 2 mM EDTA, 250 mM Sucrose (buffer A) and 1× Complete protease inhibitor cocktail (Roche), and disrupted at 4° C. by N2 decompression using a cell disruption bomb (Parr Instrument). Following centrifugation at 1000 RPM for 10 min at 4° C., the supernatant was diluted (2×) in buffer A and centrifuged again at 19000 RPM for 75 min at 4° C. The pellet was then suspended in 10 mM HEPES, pH 7.4, 1 mM EDTA, 250 mM Sucrose (Buffer B), and 1× Complete EDTA-free protease inhibitor cocktail and homogenized using a potter. Membranes were flash frozen in liquid N2 and stored at −80° C.
Measurements of 35S-GTPγS Binding: Membranes (1 to 10 μg protein) prepared as described above, were incubated in 96-well Scintiplates (PerkinElmer) with test compounds diluted in DMSO, in 140 μl of 20 mM HEPES, pH 7.4, 10 mM MgCl2, 2 μg/well Saponin, 0.2% fatty acid free BSA (Assay buffer), 125 mM NaCl and 1.5 μM GDP. The assay was initiated with the addition of 60 μl of 1.5 nM [35S]-GTPγS (1100 Ci/mmol; GE Healthcare) in assay buffer. After 60 min incubation at 30° C. on a shaker, plates were centrifuged for 10 min at 2000 RPM. Supernatant was discarded and membrane bound radioactivity was measured on a PerkinElmer 1450 MicroBeta counter. Triplicate samples were averaged and expressed as % response relative to S1P activation in absence of compound (n=2).
The “potency” or the “activity” of the compounds is determined by the EC50 values as evaluated in the above described 35S-GTPγS binding assay.

[2] = molecular target: T2, human S1P1 Receptor fused to the green fluorescent protein (EGFP) (Homo sapiens, UniProt P21453); experiment: Internalization of S1P1 in S1P1-U2OS cells by cell imaging analysis; assay type: cell-based; conditions: 1 hour incubation, 384-well
T2 construct: host or cells: U2OS (human bone osteosarcoma epithelial cells), CMV promoter, geneticin selection
T2 sequence (P21453 with tags, fused parts or gaps): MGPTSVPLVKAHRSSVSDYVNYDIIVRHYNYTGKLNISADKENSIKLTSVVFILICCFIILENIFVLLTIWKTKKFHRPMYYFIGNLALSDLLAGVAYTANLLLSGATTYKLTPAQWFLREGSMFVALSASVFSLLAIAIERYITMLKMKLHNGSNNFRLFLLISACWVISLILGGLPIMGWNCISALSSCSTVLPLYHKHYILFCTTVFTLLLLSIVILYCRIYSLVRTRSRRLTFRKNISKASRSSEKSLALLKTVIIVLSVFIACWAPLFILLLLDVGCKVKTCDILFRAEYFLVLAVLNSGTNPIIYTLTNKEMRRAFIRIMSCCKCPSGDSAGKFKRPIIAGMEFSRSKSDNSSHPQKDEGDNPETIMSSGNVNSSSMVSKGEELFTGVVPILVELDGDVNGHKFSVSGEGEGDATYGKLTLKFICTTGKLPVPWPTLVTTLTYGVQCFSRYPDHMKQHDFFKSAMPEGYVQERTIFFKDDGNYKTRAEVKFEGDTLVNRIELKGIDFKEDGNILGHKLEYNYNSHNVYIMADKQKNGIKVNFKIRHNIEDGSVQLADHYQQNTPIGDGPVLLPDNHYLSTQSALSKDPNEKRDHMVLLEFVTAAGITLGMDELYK
Description: Cellular Functional Assays: Internalization of Sphingosine-1-Phosphate Receptor 1 (S1P1) in a Human Cell Line (U2OS) in a 384-Well Format Using a Cell Imaging Analysis.
The S1P1 internalization assay was performed in 384 well plates (Corning® 384 black with clear bottom 3712) using S1P1-U2OS cells from BioImage (C039A), a human epithelial cell line (Human Bone Osteosarcoma Epithelial Cells). These cells expressed the human S1P1 Receptor fused to the green fluorescent protein (EGFP). A standard CMV promoter (cytomegalovirus promoter) controls the expression of S1P1-EGFP and continuous expression was maintained by addition of geneticin to the culture medium.
S1P1 Receptor desensitization induced the internalization of the membrane-localized S1P1-EGFP fusion protein to endosomes, which can be monitored by cell imaging analysis.
The cells are plated in low serum medium (Dulbecco's Modified Eagle Medium (DMEM) with Glutamax-1 and high glucose, 1% Penicillin/Streptomycin, 1% Fetal Calf Serum (FCS), 0.5 mg/ml Geneticin) overnight.
The next day, S1P1-U2OS cells are incubated in 20 μl serum free medium (DMEM with Glutamax-1 and high glucose, 0.1% of fatty-acid free Bovin Serum Albumin (BSA), 10 mM, N′-2-Hydroxyethylpiperazine-N′-2 ethanesulphonic acid (HEPES) 1M) for 2 hours at 37° C./5% CO2.
The cells are then treated with 4 μl compounds/agonists (6×/3% DMSO) for a total volume of 24 μl, and plates are incubated for 1 hour at 37° C./5% CO2.
S1P1-U2OS cells are fixed with 25 μl Paraformaldehyde 8% and stained with Hoechst 33345 dye (1:1000) for 20 minutes.
They were then washed 3 times with Phosphate Buffered Saline (PBS) and plates are sealed.
The internalization of the receptor S1P1-EGFP is measured on Cellomics by calculating the “spot count per object” (“object” corresponds to nuclear and “spot” corresponds to S1P1-EGFP receptor). Internalization data were observed thanks to vHCS View and analyzed using Genedata® software.

S1P1 [3] = molecular target: T1, S1P1; experiment: Receptor binding assay, [33P]sphingosine 1-phosphate competition, S1P1
Description: as §1
(§2) Receptor binding assay: [33P]sphingosine 1-phosphate (3000 Ci/mmol; American Radiolabeled Chemicals, Inc.) was added to test compounds in 20% DMSO by competition. Membranes and WGA SPA beads (GE Healthcare) were added to give a final volume of 100 μl in 96-well plates or 50 μl in 384-well plates with assay concentrations of 30 pM or 15 pM [33P]sphingosine 1-phosphate (respectively for S1P1 or S1P3), 50 mM HEPES, pH 7.5, 5 mM MgCl2, 100 mM NaCl, 0.4% fatty acid-free BSA, 1-5 μg/well of proteins in 96-well plates vs 0.6-1 μg/well of proteins in 384-well plates and 100 μg/well of WGA SPA beads in 96-well plates vs 75 μg/well of WGA SPA beads in 384-well plates. Binding was performed for 60 min at RT on a shaker and bound radioactivity was measured on a PerkinElmer 1450 MicroBeta counter. Triplicate samples were averaged and normalized as purcentage of inhibition relative to total binding (only DMSO in well) and non specific binding (1000-fold excess of unlabeled S1P). Binding data were analyzed using the GraphPad Prism program or Genedata software.

S1P3 = S1P3 (Homo sapiens, UniProt Q99500); experiment: Receptor binding assay, [33P]sphingosine 1-phosphate competition, S1P3
Sequence of S1P3 (Q99500 whole entry, species assumed): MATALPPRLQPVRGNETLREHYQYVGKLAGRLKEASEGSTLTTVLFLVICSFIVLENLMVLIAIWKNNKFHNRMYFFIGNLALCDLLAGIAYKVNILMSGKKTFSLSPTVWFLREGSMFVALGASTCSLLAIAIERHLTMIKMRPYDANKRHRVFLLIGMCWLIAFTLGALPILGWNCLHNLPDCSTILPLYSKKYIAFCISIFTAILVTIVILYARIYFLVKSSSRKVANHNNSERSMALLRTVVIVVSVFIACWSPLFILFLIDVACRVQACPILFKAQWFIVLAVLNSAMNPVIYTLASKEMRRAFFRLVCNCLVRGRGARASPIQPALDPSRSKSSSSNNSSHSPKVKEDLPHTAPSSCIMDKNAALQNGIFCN
Description: as §1, §2

[4] = 96 well-plate, read-out: S1P1 binding IC50 (M) (96 well-plate)
[5] = 384 well-plate, read-out: S1P1 binding IC50 (M) (384 well-plate)
[6] = 96 well-plate, read-out: S1P3 binding IC50 (M) (96 well-plate)
[7] = 384 well-plate, read-out: S1P3 binding IC50 (M) (384 well-plate)

pEC50 (S1P1 [1]) | pEC50 [2] | IC50 (S1P1 [3]; [4]) [M] | IC50 (S1P1 [3]; [5]) [M] | IC50 (S1P3; [6]) [M] | IC50 (S1P3; [7]) [M] | Compound
6.87 |  |  |  |  |  | COCc1cc(-c2nc(-c3ccc(NCCC(=O)OC(C)(C)C)nc3)no2)ccc1-c1ccccc1C [Example 1, tert-butyl N-(5-{5-[2-(methoxymethyl)-2′-methylbiphenyl-4-yl]-1,2,4-oxadiazol-3-yl}pyridin-2-yl)-beta-alaninate]
6.88 |  |  |  |  |  | COCc1cc(-c2nc(-c3ccc(NCC(=O)O)nc3)no2)ccc1-c1ccccc1C [Example 3, N-(5-{5-[2-(methoxymethyl)-2′-methylbiphenyl-4-yl]-1,2,4-oxadiazol-3-yl}pyridin-2-yl)glycine, hydrochloride salt]
7.84 |  |  |  |  |  | COCc1cc(-c2nc(-c3ccc(NC(C)=O)nc3)no2)ccc1-c1ccccc1C [Example 5, N-(5-{5-[2-(methoxymethyl)-2′-methylbiphenyl-4-yl]-1,2,4-oxadiazol-3-yl}pyridin-2-yl)acetamide, hydrochloride salt]
6.84 |  |  |  |  |  | COCc1cc(-c2nc(-c3ccnc(N(C)C)c3)no2)ccc1-c1ccccc1C [Example 6, 4-{5-[2-(methoxymethyl)-2′-methylbiphenyl-4-yl]-1,2,4-oxadiazol-3-yl}-N,N-dimethylpyridin-2-amine, hydrochloride salt]
8.00 |  |  |  |  |  | COCc1cc(-c2nc(-c3ccc(NCCCC(=O)O)nc3)no2)ccc1-c1ccccc1C [Example 8, 4-[(5-{5-[2-(methoxymethyl)-2′-methylbiphenyl-4-yl]-1,2,4-oxadiazol-3-yl}pyridin-2-yl)amino]butanoic acid, hydrochloride salt]
6.85 |  |  |  |  |  | COCc1cc(-c2nc(-c3ccnc(NCC(=O)OC(C)(C)C)c3)no2)ccc1-c1ccccc1C [Example 10, tert-butyl N-(4-{5-[2-(methoxymethyl)-2′-methylbiphenyl-4-yl]-1,2,4-oxadiazol-3-yl}pyridin-2-yl)glycinate]
7.14 |  |  |  |  |  | COCc1cc(-c2nc(-c3cnc(N)cn3)no2)ccc1-c1ccccc1C [Example 16, 5-{5-[2-(methoxymethyl)-2′-methylbiphenyl-4-yl]-1,2,4-oxadiazol-3-yl}pyrazin-2-amine]
 | 7.79 | 2.07e-09 | 7.95e-09 | 1.6e-06 | 2.41e-06 | CCOc1cc(-c2nc(-c3cnc(NCCC(=O)O)c(Cl)c3)no2)ccc1-c1ccccc1C [Example 65, N-{3-chloro-5-[5-(2-ethoxy-2′-methylbiphenyl-4-yl)-1,2,4-oxadiazol-3-yl]pyridin-2-yl}-beta-alanine, hydrochloride salt]
 | 7.84 | 3.3e-09 | 8.68e-09 | 7.44e-07 | 1.38e-06 | CC1CCCCN1c1ccc(-c2nc(-c3ccnc(CN(C)CC(=O)O)c3)no2)cc1C(F)(F)F (stereo not shown) [Example 66, 2-(methyl((4-(5-(4-(2-methylpiperidin-1-yl)-3-(trifluoromethyl)phenyl)-1,2,4-oxadiazol-3-yl)pyridin-2-yl)methyl)amino)acetic acid]
 | 7.85 | 1.2e-09 |  | 1.41e-07 | 4.68e-07 | CC1CCCCN1c1ccc(-c2nc(-c3ccnc(CN(C)CCC(=O)O)c3)no2)cc1C(F)(F)F (stereo not shown) [Example 67, 3-(methyl((4-(5-(4-(2-methylpiperidin-1-yl)-3-(trifluoromethyl)phenyl)-1,2,4-oxadiazol-3-yl)pyridin-2-yl)methyl)amino)propanoic acid]
 | 7.98 | 1.79e-09 | 1.18e-08 | 8.55e-07 | 1.08e-06 | COCc1cc(-c2nc(-c3ccnc(CN(C)CC(=O)O)c3)no2)ccc1-c1ccccc1C [Example 68, 2-(((4-(5-(2-(methoxymethyl)-2′-methylbiphenyl-4-yl)-1,2,4-oxadiazol-3-yl)pyridin-2-yl)methyl)(methyl)amino)acetic acid]
 | 8.04 | 2.6e-09 | 3.19e-09 | 1.7e-07 | 1.62e-07 | COCc1cc(-c2nc(-c3ccnc(CNCC(=O)O)c3)no2)ccc1-c1ccccc1C [Example 69, 2-((4-(5-(2-(methoxymethyl)-2′-methylbiphenyl-4-yl)-1,2,4-oxadiazol-3-yl)pyridin-2-yl)methylamino)acetic acid]
 | 7.67 |  | 3.4e-09 | 5.75e-06 | 8.92e-06 | CCOc1cc(-c2nc(-c3cnc(NCCC(=O)O)c(Cl)c3)no2)ccc1-c1ccccc1C(F)(F)F [Example 71, N-(3-chloro-5-{5-[2-ethoxy-2′-(trifluoromethyl)biphenyl-4-yl]-1,2,4-oxadiazol-3-yl}pyridin-2-yl)-beta-alanine, hydrochloride salt]
 | 7.63 |  | 8.69e-09 |  | 3.78e-06 | COCc1cc(-c2nc(-c3cnc(NCCC(=O)O)c(Cl)c3)no2)ccc1-c1cccc(F)c1C [Example 72, N-(3-chloro-5-{5-[3′-fluoro-2-(methoxymethyl)-2′-methylbiphenyl-4-yl]-1,2,4-oxadiazol-3-yl}pyridin-2-yl)-beta-alanine, hydrochloride salt]
 | 7.75 |  | 7.83e-09 |  | 2.88e-06 | Cc1ccccc1-c1ccc(-c2nc(-c3ccc(CN(C)CC(=O)O)nc3)no2)cc1C(F)(F)F [Example 74, 2-(methyl((5-(5-(2′-methyl-2-(trifluoromethyl)biphenyl-4-yl)-1,2,4-oxadiazol-3-yl)pyridin-2-yl)methyl)amino)acetic acid]
 | 7.82 |  | 9.46e-09 |  | 2.26e-06 | Cc1ccccc1-c1ccc(-c2nc(-c3ccnc(CN(C)CC(=O)O)c3)no2)cc1C(F)(F)F [Example 75, 2-(((4-(5-(2-(trifluoromethyl)-2′-methylbiphenyl-4-yl)-1,2,4-oxadiazol-3-yl)pyridin-2-yl)methyl)(methyl)amino)acetic acid]
 | 8.02 | 3.01e-09 | 3.5e-09 | 3.04e-06 | 2.48e-06 | COCc1cc(-c2nc(-c3ccc(CN(C)CC(=O)O)nc3)no2)ccc1-c1ccccc1C [Example 78, 2-(((5-(5-(2-(methoxymethyl)-2′-methylbiphenyl-4-yl)-1,2,4-oxadiazol-3-yl)pyridin-2-yl)methyl)(methyl)amino)acetic acid]
